The values that follow come from ChEMBL document CHEMBL4680289, “10-(4-Phenylpiperazine-1-carbonyl)acridin-9(10H)-ones and related compounds: Synthesis, antiproliferative activity and inhibition of tubulin polymerization” (Bioorg Med Chem Lett, 2021).

Assay [1] deals with K562. Put plainly: Antiproliferative activity against human K562 cells assessed as cell growth inhibition measured after 48 hrs by MTT assay. It is filed as functional, cell-based. Conditions: K562, 48 h. (In general: Tetrazolium assays rely on reduction of a dye to a coloured formazan, in cell work by metabolically active cells.)
Assay [2] can be described thus: Inhibition of porcine brain tubulin polymerization assessed as reduction in tubulin assembly at 37 degreeC measured after 40 mins in presence of GTP by turbidimetric analysis. The arrangement: species or system Sus scrofa.
Assay [3] addresses Tubulin beta (Homo sapiens) (UniProt P68371+Q9H4B7+Q13509+P04350+Q3ZCM7+P07437+Q13885+Q9BVA1+Q9BUF5+A6NNZ2). Kind of assay: Inhibition of N,N'-Ethylenebis(iodoacetamide) binding to beta-tubulin colchicine binding site in human K562 cells assessed as reduction in EBI/beta-tubulin adduct formation at 1 to 10 uM preincubated for 2.5 hrs followed by EBI addition and measured after 1.5 hrs by Western blot analysis. It counts as cell-based. Particulars: dose 1-10 µM, time 4.0 hrs. In general terms: A western blot detects proteins with antibodies after separation by electrophoresis.

The test system of assay [4] is K562. Put plainly: Induction of apoptosis in human K562 cells assessed as late apoptotic cells at 1 micromol/L measured after 48 hrs by Annexin V-FITC/7-AAD staining based flow cytometric analysis (reference value: 2.49 %). It is filed as functional. Particulars: dose 1 µmol/L, at 1 µM. A general note: In flow cytometry, cells or beads pass a laser one at a time.
The test system of assay [5] is K562. Kind of assay: Induction of apoptosis in human K562 cells assessed as late apoptotic cells at 0.3 micromol/L measured after 48 hrs by Annexin V-FITC/7-AAD staining based flow cytometric analysis (reference value: 2.49 %). It counts as functional. Conditions: dose 0.3 µmol/L, at 0.3 µM.
Assay [6] concerns K562. Kind of assay: Induction of apoptosis in human K562 cells assessed as late apoptotic cells at 0.1 micromol/L measured after 48 hrs by Annexin V-FITC/7-AAD staining based flow cytometric analysis (reference value: 2.49 %). It is filed as functional. Conditions: dose 0.1 µmol/L, at 0.1 µM.
Assay [7] has as its system K562. Kind of assay: Induction of apoptosis in human K562 cells assessed as viable cells at 0.03 micromol/L measured after 48 hrs by Annexin V-FITC/7-AAD staining based flow cytometric analysis (reference value: 92.85 %). It is filed as functional. Conditions: K562, 48 h, dose 0.03 µmol/L, read-out: Activity.
Assay [8] concerns K562. Put plainly: Induction of apoptosis in human K562 cells assessed as early apoptotic cells at 0.03 micromol/L measured after 48 hrs by Annexin V-FITC/7-AAD staining based flow cytometric analysis (reference value: 4.2 %). It is filed as functional. Conditions: dose 0.03 µmol/L, at 0.03 µM.
The test system of assay [9] is K562. Kind of assay: Induction of apoptosis in human K562 cells assessed as viable cells at 0.01 micromol/L measured after 48 hrs by Annexin V-FITC/7-AAD staining based flow cytometric analysis (reference value: 92.85 %). It counts as functional. Particulars: K562, 48 h, dose 0.01 µmol/L, read-out: Activity.
In assay [10] the test system is K562. Put plainly: Induction of apoptosis in human K562 cells assessed as late apoptotic cells at 0.1 uM measured after 12 hrs by Annexin V-FITC/7-AAD staining based flow cytometric analysis relative to control. It counts as functional.
Assay [11] relates to K562. Put plainly: Induction of apoptosis in human K562 cells assessed as late apoptotic cells at 0.1 uM measured after 24 hrs by Annexin V-FITC/7-AAD staining based flow cytometric analysis relative to control. It counts as functional.
In assay [12] the test system is K562. Kind of assay: Induction of apoptosis in human K562 cells assessed as early apoptotic cells at 0.1 uM measured after 72 hrs by Annexin V-FITC/7-AAD staining based flow cytometric analysis relative to control. It counts as functional.
Assay [13] concerns K562. Kind of assay: Induction of apoptosis in human K562 cells at 30 nM measured after 48 hrs by Annexin V-FITC/7-AAD staining based flow cytometric analysis. It is filed as functional, cell-based.

Calls of active or inactive are those of the source. No cut-off for these calls is given here.

In general, IC50 refers to the concentration at which inhibition is half-maximal. On to `COc1cc(OC)cc(N2CCN(C(=O)n3c4ccccc4c(=O)c4ccccc43)CC2)c1`, for which the IC50 turned out to be 13 nM in [1] and 350 nM in assay [2]. In assay [3], the inhibition entry was “Active”. In addition, the Activity in [4] came out at 31.22%; in assay [5], 32.32%; in [6], 22.22%; in assay [8] it was 21.52%; in assay [10] it was 2.86%; in assay [11], 7.02%. Moreover, the Activity in assay [12] amounted to 11.57%. For the same compound, the viability at 0.03 µM in assay [7] was determined as 52.2%. The viability at 0.01 µM in assay [9] came to 88.6%. For the same compound, the outcome in [13] was Active.
